Assay results from patent US6451861B1, “Reduction of gastro-intestinal bacterial load” (priority 1999, dated 2002).

What was measured:
[1] = test system: E. coli strains AW574 or AW405; assay: Lysis of E. coli by terpenes (galactosidase activity, ONPG, 420 nm)
Excerpt: Lysis of the cell membrane was monitored by the determination of galactosidase activity. […] This enzyme is inducible in the presence of isopropyl-1-thiogalactosidase (IPTG) and assayed colorimetricaly with substrate o-nitro-phenyl-B-D-galactoside (ONPG). ONPG is cleaved to release o-nitrophenol with peak absorvance at 420 nm. Since intact E. coli is impermeable to both ONPG and the enzyme, the cells have to be lysed prior to enzymatic assay. Therefore the ability of terpenes to lyse E. coli can be measured with this enzymatic assay and compared to known lysing agents. The procedure used was as follows: E. coli strains AW574 or AW405 were cultured overnight in 10 ml tryptone broth with 1 nM IPTG at 35° C. Cells were allowed to growth after an absorbance equal to 0.9 was reached. Cells were harvested, washed with phosphate buffer and resuspended to an absorbance equal to 0.5. One tenth of a ml of the bacteria culture was added to 0.9 ml of buffer, warmed to 30° C. and then 80 ul of terpenes (85% terpenes and 15% polysorbate-80), 80 ul water (background) or 40 ul chloroform plus 40 ul 1% SDS in water (positive control) were added. After the addition of the lysing agents the tubes were mixed for 10 seconds and 0.2 ml of ONPG (4 mg/ml water) was added, then incubated for 5 minutes. The enzyme activity was stopped with 0.5 ml of 1 M sodium carbonate. After being centrifuged for 3 minutes at 1,500×g, supernatant was transferred to cuvettes and read at 420 nm. The relative degree of lysis caused by terpenes was calculated as follows:
100×(OD terpenes−OD water)/(OD chloroform−OD water)

[2] = test system: E. coli; conditions: cited from earlier work

CC(C)=CCC/C(C)=C/CO [Geraniol]
Relative lysis % ([1]; Geraniol 3.63 uM, relative to SDS + chloroform = 100%): 2.4%
Relative lysis % ([1]; Geraniol 363 uM, relative to SDS + chloroform = 100%): 34%
Relative lysis % ([1]; Geraniol 3,630 uM, relative to SDS + chloroform = 100%): 98%
Relative lysis % ([1]; Geraniol 36,300 uM, relative to SDS + chloroform = 100%): 96%

CC(C)=CCCC(C)=CC=O [citral]
citral concentration in media that reduced the concentration of E. coli [2]: more than 0.01%
citral concentration with bactericidal effect ([2]; in media): 0.08%

Polysorbate-80 [reference compound]
Relative lysis % ([1]; 80 ul Polysorbate-80 alone): 3.2%
